Tested on: MC38 mouse colon cancer cells
Test: Tumor suppressive efficacy in combination with other TLR ligands or saponin, colon cancer mouse model
Type: in vivo, C57BL/6 mice
Settings: L-pampo 45 μg/dose, QS21 10 μg/dose, Imiquimod 10 μg/dose, intratumoral four times at 3-day intervals, D20, 12 days after start
Protocol: Tumors were generated in mice by subcutaneous injection of 1×10^5 MC38 mouse colon cancer cells into the right flank of 8-week-old female C57BL/6 mice (OrientBio, Korea). The immuno-oncology drug L-pampo was prepared by mixing 25 μg of Pam3CSK4 and 20 μg of poly(I:C). […] This was administered into the tumor four times at 3-day intervals. Tumor sizes for all experimental groups were measured every three days. The long and short axes of the tumor were measured, and the size of the tumor was calculated as [½×size of the long axis×(size of the short axis)^2]. The tumor suppressive efficacy was analyzed based on the calculated tumor size.

Compound | size of the tumor reduced compared to negative control (buffer)
CC(C)Cn1cnc2c(N)nc3ccccc3c21 [imiquimod] | about 39%
QS-21 | about 57%

From patent publication US20240277754A1, “IMMUNO-ONCOLOGY THERAPEUTIC COMPOSITION USING ADJUVANT INCLUDING LIPOPEPTIDES AND POLY (I:C)” (CHA VACCINE RESEARCH INSTITUTE CO., LTD, priority 2021, published 2024)
